The assay deals with MBP–CSSR (core stress-sensing region of yeast Ire1). Description: In vitro competition assay for peptide binding to the CSSR (fluorescence anisotropy of ΔEspP–FAM). More on the design: species or system Saccharomyces cerevisiae. The settings on record: Fig. 6C. How it is done:
Fig. 6. Two-hybrid and in vitro interaction of the CSSR with various peptides. (A,B) A yeast two-hybrid analysis was performed using the CSSR and its mutants as prey. The Subregion I 60-amino-acid portion (Sub-I), Segment 4 (Seg4; six tandem repeat), GGGSS (12 tandem repeat), Segments 1–3 (Segs1–3; amino acids 32–61 of yeast Ire1; two tandem repeat), Segments 4–6 (Segs4–6; amino acids 62–91 of yeast Ire1; two tandem repeat), the NUCR of human or mouse PERK (hPERK or mPERK), the Top2 IDR (Top2; two tandem repeat) and the San1 IDR (San1) were used as bait. Tester cell cultures were serially diluted tenfold, spotted on agar plates, incubated for 2–4 days and photographed. WT, wild type. (C) A fluorescently labeled peptide DEspP–FAM (10 µM final concentration) was mixed with MBP–CSSR (5 µM final concentration) and a competitor peptide [Segment (Seg) 2–6] and measured for fluorescence anisotropy. The resulting values from triplicate assays (mean±s.d.) are normalized to that for the no competitor peptide condition.
Next, we performed an in vitro competition assay to monitor the affinity of the Subregion I segments for the CSSR. A recombinant CSSR protein tagged with the maltose-binding protein (MBP–CSSR) was expressed in Escherichia coli and purified with amylose resin ([Kimata et al., 2007]). […]
A general note: In fluorescence polarisation assays a small probe gives low polarisation when free and higher when bound to something large.

Consider “Segment 4: Untagged competitor peptide NH2-KKKA-[10 amino acids of Segment 4 of yeast Ire1 Subregion I]-AAKKKK-COOH (H-KKKAIPAPRTTEGLAAKKKK-OH)”, for which, under “in vitro competition analysis”, the “Affinity of capture by the CSSR relative to other Subregion I segments” value is recorded as “higher affinity than for other segments”. Besides, the “Reduction of ΔEspP–FAM fluorescence anisotropy by competitor peptide (reduced association between ΔEspP–FAM and MBP–CSSR)” value (ΔEspP–FAM 10 µM, MBP–CSSR 5 µM, elution buffer A (50 mM HEPES pH 8.0), 30 min incubation, 25°C, triplicate assays, normalized to no competitor) was “more effectively than the other segments did”.

(Values after publication PMC4432228, “Tight regulation of the unfolded protein sensor Ire1 by its intramolecularly antagonizing subdomain” (Journal of Cell Science, 2015).)
